ChEMBL document CHEMBL1201862, “PubChem BioAssay data set” (2004)
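Briefly, cells in 96-well plates were exposed to five compound concentrations for 48 h, and endpoints were estimated by linear interpolation. GI50 = concentration required for 50% inhibition of growth.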 The source made the active and inactive calls. Cut-off read from the data, not from the text of the source: active = GI50 up to about 1.1 µM and inactive = higher.

Key:
Test in all cases: NCI anticancer screen, dose series, 48 h
[1] = test system: 786-0
[2] = test system: A549
[3] = test system: ACHN
[4] = test system: CAKI-1
[5] = test system: CCRF-CEM
[6] = test system: COLO 205
[7] = test system: DLD-1
[8] = test system: DMS-114
[9] = test system: DMS-273
[10] = test system: EKVX
[11] = test system: HCC 2998
[12] = test system: HCT-116
[13] = test system: HCT-15
[14] = test system: HL-60
[15] = test system: HOP-18
[16] = test system: HOP-62
[17] = test system: HT-29
[18] = test system: IGROV-1
[19] = test system: K562
[20] = test system: KM-20L2
[21] = test system: KM12
[22] = test system: LOX IMVI
[23] = test system: LXFL 529
[24] = test system: M14
[25] = test system: M19-MEL
[26] = test system: MOLT-4
[27] = test system: Malme-3M
[28] = test system: NCI-H226
[29] = test system: NCI-H23
[30] = test system: NCI-H460
[31] = test system: NCI-H522
[32] = test system: OVCAR-3
[33] = test system: OVCAR-4
[34] = test system: OVCAR-5
[35] = test system: OVCAR-8
[36] = test system: RPMI-8226
[37] = test system: RXF 393
[38] = test system: SF-268
[39] = test system: SF-295
[40] = test system: SF-539
[41] = test system: SK-MEL-28
[42] = test system: SK-MEL-2
[43] = test system: SK-OV-3
[44] = test system: SN12C
[45] = test system: SNB-19
[46] = test system: SNB-78
[47] = test system: SR
[48] = test system: SW-620
[49] = test system: TK-10
[50] = test system: U-251
[51] = test system: UACC-257
[52] = test system: UACC-62
[53] = test system: UO-31
[54] = test system: XF498
[55] = test system: A498
[56] = test system: HOP-92
[57] = test system: SK-MEL-5
[58] = test system: SNB-75
[59] = test system: MCF7
[60] = test system: NCI/ADR-RES

CC(=O)c1sc(-c2nc(C)c(C(=O)/C=C\c3ccc(/C=C\C(=O)c4sc(-c5nc(C)c(C(C)=O)s5)nc4C)cc3)s2)nc1C
GI50 [1]: > 100 µM (inactive)
GI50 [2]: > 100 µM (inactive)
GI50 [3]: > 100 µM (inactive)
GI50 [4]: > 100 µM (inactive)
GI50 [5]: 80.7 µM (inactive)
GI50 [6]: > 100 µM (inactive)
GI50 [7]: > 100 µM (inactive)
GI50 [8]: > 100 µM (inactive)
GI50 [9]: > 100 µM (inactive)
GI50 [10]: > 100 µM (inactive)
GI50 [11]: > 100 µM (inactive)
GI50 [12]: > 100 µM (inactive)
GI50 [13]: > 100 µM
GI50 [14]: > 100 µM (inactive)
GI50 [15]: > 100 µM (inactive)
GI50 [16]: > 100 µM (inactive)
GI50 [17]: > 100 µM (inactive)
GI50 [18]: > 100 µM (inactive)
GI50 [19]: > 100 µM (inactive)
GI50 [20]: > 100 µM (inactive)
GI50 [21]: > 100 µM (inactive)
GI50 [22]: > 100 µM (inactive)
GI50 [23]: > 100 µM (inactive)
GI50 [24]: > 100 µM (inactive)
GI50 [25]: > 100 µM (inactive)
GI50 [26]: > 100 µM (inactive)
GI50 [27]: > 100 µM (inactive)
GI50 [28]: > 100 µM (inactive)
GI50 [29]: > 100 µM (inactive)
GI50 [30]: > 100 µM (inactive)
GI50 [31]: > 100 µM (inactive)
GI50 [32]: > 100 µM (inactive)
GI50 [33]: > 100 µM (inactive)
GI50 [34]: > 100 µM (inactive)
GI50 [35]: > 100 µM (inactive)
GI50 [36]: 50.5 µM (inactive)
GI50 [37]: > 100 µM (inactive)
GI50 [38]: > 100 µM (inactive)
GI50 [39]: > 100 µM (inactive)
GI50 [40]: > 100 µM (inactive)
GI50 [41]: > 100 µM (inactive)
GI50 [42]: > 100 µM (inactive)
GI50 [43]: > 100 µM (inactive)
GI50 [44]: > 100 µM (inactive)
GI50 [45]: > 100 µM (inactive)
GI50 [46]: > 100 µM (inactive)
GI50 [47]: > 100 µM (inactive)
GI50 [48]: > 100 µM (inactive)
GI50 [49]: > 100 µM (inactive)
GI50 [50]: > 100 µM (inactive)
GI50 [51]: > 100 µM (inactive)
GI50 [52]: 85.9 µM (inactive)
GI50 [53]: > 100 µM (inactive)
GI50 [54]: > 100 µM (inactive)

O=C1OC(c2ccccc2)=N/C1=C\c1cccc2ccccc12
GI50 [1]: > 100 µM (inactive)
GI50 [55]: > 100 µM (inactive)
GI50 [2]: > 100 µM (inactive)
GI50 [3]: > 100 µM (inactive)
GI50 [4]: > 100 µM (inactive)
GI50 [5]: > 100 µM (inactive)
GI50 [6]: > 100 µM (inactive)
GI50 [7]: > 100 µM (inactive)
GI50 [8]: > 100 µM (inactive)
GI50 [9]: > 100 µM (inactive)
GI50 [11]: > 100 µM (inactive)
GI50 [12]: > 100 µM (inactive)
GI50 [13]: > 100 µM
GI50 [14]: > 100 µM (inactive)
GI50 [15]: > 100 µM (inactive)
GI50 [16]: > 100 µM (inactive)
GI50 [56]: 52.4 µM (inactive)
GI50 [17]: > 100 µM (inactive)
GI50 [18]: > 100 µM (inactive)
GI50 [19]: > 100 µM (inactive)
GI50 [21]: > 100 µM (inactive)
GI50 [22]: > 100 µM (inactive)
GI50 [23]: > 100 µM (inactive)
GI50 [24]: > 100 µM (inactive)
GI50 [25]: > 100 µM (inactive)
GI50 [26]: > 100 µM (inactive)
GI50 [27]: > 100 µM (inactive)
GI50 [28]: > 100 µM (inactive)
GI50 [29]: > 100 µM (inactive)
GI50 [30]: > 100 µM (inactive)
GI50 [31]: > 100 µM (inactive)
GI50 [32]: > 100 µM (inactive)
GI50 [33]: > 100 µM (inactive)
GI50 [34]: > 100 µM (inactive)
GI50 [35]: > 100 µM (inactive)
GI50 [36]: > 100 µM (inactive)
GI50 [37]: > 100 µM (inactive)
GI50 [38]: > 100 µM (inactive)
GI50 [39]: > 100 µM (inactive)
GI50 [40]: > 100 µM (inactive)
GI50 [41]: > 100 µM (inactive)
GI50 [42]: > 100 µM (inactive)
GI50 [57]: > 100 µM (inactive)
GI50 [43]: > 100 µM (inactive)
GI50 [44]: > 100 µM (inactive)
GI50 [45]: > 100 µM (inactive)
GI50 [58]: > 100 µM (inactive)
GI50 [46]: > 100 µM (inactive)
GI50 [47]: > 100 µM (inactive)
GI50 [48]: > 100 µM (inactive)
GI50 [49]: > 100 µM (inactive)
GI50 [50]: > 100 µM (inactive)
GI50 [51]: > 100 µM (inactive)
GI50 [52]: > 100 µM (inactive)
GI50 [53]: > 100 µM (inactive)
GI50 [54]: > 100 µM (inactive)

CC(C)[C@](O)(C(=O)OCC1CC[N+]2([O-])CC[C@@H](O)C12)[C@H](C)O (some centres undefined)
GI50 [55]: > 59.4 µM (inactive)
GI50 [2]: > 375 µM (inactive)
GI50 [4]: > 375 µM (inactive)
GI50 [5]: > 375 µM (inactive)
GI50 [6]: > 375 µM (inactive)
GI50 [7]: > 375 µM (inactive)
GI50 [8]: > 375 µM (inactive)
GI50 [9]: > 375 µM (inactive)
GI50 [10]: > 375 µM (inactive)
GI50 [11]: > 277 µM (inactive)
GI50 [12]: > 255 µM (inactive)
GI50 [13]: > 375 µM
GI50 [14]: > 375 µM (inactive)
GI50 [15]: 105 µM (inactive)
GI50 [16]: > 375 µM (inactive)
GI50 [56]: > 375 µM (inactive)
GI50 [17]: > 375 µM (inactive)
GI50 [18]: > 375 µM (inactive)
GI50 [19]: > 375 µM (inactive)
GI50 [20]: > 375 µM (inactive)
GI50 [21]: > 375 µM (inactive)
GI50 [22]: > 142 µM (inactive)
GI50 [25]: > 375 µM (inactive)
GI50 [59]: > 375 µM (inactive)
GI50 [26]: > 375 µM (inactive)
GI50 [27]: > 255 µM (inactive)
GI50 [28]: > 375 µM (inactive)
GI50 [29]: > 375 µM (inactive)
GI50 [30]: > 122 µM (inactive)
GI50 [31]: > 375 µM (inactive)
GI50 [60]: > 375 µM (inactive)
GI50 [32]: > 375 µM (inactive)
GI50 [33]: > 375 µM (inactive)
GI50 [34]: > 375 µM (inactive)
GI50 [35]: > 375 µM (inactive)
GI50 [36]: > 375 µM (inactive)
GI50 [37]: > 375 µM (inactive)
GI50 [38]: > 375 µM (inactive)
GI50 [39]: > 375 µM (inactive)
GI50 [40]: > 375 µM (inactive)
GI50 [41]: > 375 µM (inactive)
GI50 [42]: 62.2 µM (inactive)
GI50 [57]: > 334 µM (inactive)
GI50 [43]: > 375 µM (inactive)
GI50 [44]: > 375 µM (inactive)
GI50 [45]: > 375 µM (inactive)
GI50 [58]: 126 µM (inactive)
GI50 [46]: > 375 µM (inactive)
GI50 [48]: > 375 µM (inactive)
GI50 [50]: > 375 µM (inactive)
GI50 [51]: > 375 µM (inactive)
GI50 [52]: > 375 µM (inactive)
GI50 [53]: > 375 µM (inactive)
GI50 [54]: > 375 µM (inactive)
